Assay results reported in PubChem BioAssay AID250 (DTP/NCI, 2004).
Toxic doses and inconclusive results are not listed.

Tested on: BDF1 mice, L1210 leukemia sc, survival T/C
Test: NCI In Vivo Anticancer Drug Screen. Data for tumor model L1210 Leukemia (subcutaneous) in B6D2F1 (BDF1) mice
Conditions: higher = longer survival
Procedure, shortened: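 Mice carrying transplanted tumors received test compounds, and survival or tumor size was measured. Values are the treated-group measurement (T) divided by that of the vehicle-treated control group (C).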

[1] = endpoint: median survival time, dose: 108.0 mg/kg/injection, schedule: Q01DX Z (sc), vehicle: methylcellulose (MC)
[2] = endpoint: median survival time, dose: 180.0 mg/kg/injection, schedule: Q01DX Z (sc), vehicle: methylcellulose (MC)
[3] = endpoint: median survival time, dose: 300.0 mg/kg/injection, schedule: Q01DX Z (sc), vehicle: methylcellulose (MC)

SMILES: CC1CN1CCS(=O)(=O)CCN1CC1C (stereo unspecified)
- T/C (endpoint: median survival time, dose: 5.18 mg/kg/injection, schedule: Q01DX Z (sc), vehicle: saline): 121 % of control
- T/C (endpoint: median survival time, dose: 8.64 mg/kg/injection, schedule: Q01DX Z (sc), vehicle: saline): 168 % of control
- T/C (endpoint: median survival time, dose: 14.4 mg/kg/injection, schedule: Q01DX Z (sc), vehicle: saline): 163 % of control
- T/C (endpoint: median survival time, dose: 24.0 mg/kg/injection, schedule: Q01DX Z (sc), vehicle: saline): 115 % of control
- T/C (endpoint: median survival time, dose: 40.0 mg/kg/injection, schedule: Q01DX Z (sc), vehicle: saline): 105 % of control

SMILES: C[n+]1ccc(Nc2ccc(NC(=O)c3ccc(Nc4cc[n+](C)c5ccc(N)cc45)cc3N)cc2)cc1
- T/C (endpoint: median survival time, dose: 0.5 mg/kg/injection, schedule: Q03HX024 (ip), vehicle: water): 111 % of control
- T/C (endpoint: median survival time, dose: 1.0 mg/kg/injection, schedule: Q01DX009 (ip), vehicle: water): 116 % of control
- T/C (endpoint: median survival time, dose: 2.0 mg/kg/injection, schedule: Q01DX009 (ip), vehicle: water): 155 % of control
- T/C (endpoint: median survival time, dose: 2.0 mg/kg/injection, schedule: Q01DX009 (sc), vehicle: water): 110 % of control
- T/C (endpoint: median survival time, dose: 2.0 mg/kg/injection, schedule: Q03HX024 (ip), vehicle: water): 183 % of control
- T/C (endpoint: median survival time, dose: 4.0 mg/kg/injection, schedule: Q01DX009 (ip), vehicle: water): 233 % of control
- T/C (endpoint: median survival time, dose: 4.0 mg/kg/injection, schedule: Q01DX009 (sc), vehicle: water): 170 % of control
- T/C (endpoint: median survival time, dose: 4.0 mg/kg/injection, schedule: Q03HX008 (sc), vehicle: water): 120 % of control
- T/C (endpoint: median survival time, dose: 4.0 mg/kg/injection, schedule: Q03HX024 (ip), vehicle: water): 288 % of control
- T/C (endpoint: median survival time, dose: 4.0 mg/kg/injection, schedule: Q03HX024 (sc), vehicle: water): 165 % of control
- T/C (endpoint: median survival time, dose: 8.0 mg/kg/injection, schedule: Q01DX009 (ip), vehicle: water): 194 % of control
- T/C (endpoint: median survival time, dose: 8.0 mg/kg/injection, schedule: Q01DX009 (sc), vehicle: water): 225 % of control
- T/C (endpoint: median survival time, dose: 8.0 mg/kg/injection, schedule: Q03HX024 (ip), vehicle: water): 188 % of control
- T/C (endpoint: median survival time, dose: 8.0 mg/kg/injection, schedule: Q03HX024 (sc), vehicle: water): 220 % of control
- T/C (endpoint: median survival time, dose: 8.0 mg/kg/injection, schedule: Q04DX003 (sc), vehicle: water): 100 % of control
- T/C (endpoint: median survival time, dose: 16.0 mg/kg/injection, schedule: Q01DX001 (sc), vehicle: water): 110 % of control
- T/C (endpoint: median survival time, dose: 16.0 mg/kg/injection, schedule: Q01DX009 (ip), vehicle: water): 177 % of control
- T/C (endpoint: median survival time, dose: 16.0 mg/kg/injection, schedule: Q01DX009 (sc), vehicle: water): 270 % of control
- T/C (endpoint: median survival time, dose: 16.0 mg/kg/injection, schedule: Q03HX008 (sc), vehicle: water): 235 % of control
- T/C (endpoint: median survival time, dose: 16.0 mg/kg/injection, schedule: Q03HX024 (sc), vehicle: water): 155 % of control
- T/C (endpoint: median survival time, dose: 32.0 mg/kg/injection, schedule: Q01DX009 (sc), vehicle: water): 180 % of control
- T/C (endpoint: median survival time, dose: 32.0 mg/kg/injection, schedule: Q03HX008 (sc), vehicle: water): 210 % of control
- T/C (endpoint: median survival time, dose: 32.0 mg/kg/injection, schedule: Q03HX024 (sc), vehicle: water): 100 % of control
- T/C (endpoint: median survival time, dose: 32.0 mg/kg/injection, schedule: Q04DX003 (sc), vehicle: water): 205 % of control
- T/C (endpoint: median survival time, dose: 64.0 mg/kg/injection, schedule: Q01DX001 (sc), vehicle: water): 215 % of control
- T/C (endpoint: median survival time, dose: 64.0 mg/kg/injection, schedule: Q04DX003 (sc), vehicle: water): 260 % of control
- T/C (endpoint: median survival time, dose: 128.0 mg/kg/injection, schedule: Q01DX001 (sc), vehicle: water): 240 % of control
- T/C (endpoint: median survival time, dose: 128.0 mg/kg/injection, schedule: Q04DX003 (sc), vehicle: water): 245 % of control

SMILES: CS(=O)(=O)Nc1ccc(Nc2c3ccccc3nc3ccccc23)cc1
- T/C (endpoint: mean survival time, dose: 10.0 mg/kg/injection, schedule: Q01DX009 (ip), vehicle: saline): 96 % of control
- T/C (endpoint: mean survival time, dose: 20.0 mg/kg/injection, schedule: Q01DX009 (ip), vehicle: saline): 103 % of control
- T/C (endpoint: mean survival time, dose: 40.0 mg/kg/injection, schedule: Q01DX009 (ip), vehicle: saline): 111 % of control
- T/C (endpoint: mean survival time, dose: 80.0 mg/kg/injection, schedule: Q01DX009 (ip), vehicle: saline): 90 % of control

SMILES: OCC1OC(n2cnc3c(=S)nc[nH]c32)C(O)C1O (stereo unspecified)
- T/C (endpoint: median survival time, dose: 38.9 mg/kg/injection, schedule: Q01DX Z (sc), vehicle: methylcellulose (MC)): 110 % of control
- T/C (endpoint: median survival time, dose: 50.0 mg/kg/injection, schedule: Q03HX024 (ip), vehicle: other): 150 % of control
- T/C (endpoint: median survival time, dose: 64.8 mg/kg/injection, schedule: Q01DX Z (sc), vehicle: methylcellulose (MC)): 155 % of control
- T/C (endpoint: median survival time, dose: 100.0 mg/kg/injection, schedule: Q03HX024 (ip), vehicle: other): 155 % of control
- T/C (endpoint: median survival time, dose: 100.0 mg/kg/injection, schedule: Q03HX024 (sc), vehicle: other): 155 % of control
- T/C [1]: 160 % of control
- T/C [2]: 150 % of control
- T/C (endpoint: median survival time, dose: 200.0 mg/kg/injection, schedule: Q03HX024 (ip), vehicle: other): 161 % of control
- T/C (endpoint: median survival time, dose: 200.0 mg/kg/injection, schedule: Q03HX024 (sc), vehicle: other): 155 % of control
- T/C [3]: 150 % of control
- T/C (endpoint: median survival time, dose: 400.0 mg/kg/injection, schedule: Q01DX009 (ip), vehicle: other): 155 % of control
- T/C (endpoint: median survival time, dose: 400.0 mg/kg/injection, schedule: Q01DX009 (sc), vehicle: other): 150 % of control
- T/C (endpoint: median survival time, dose: 400.0 mg/kg/injection, schedule: Q03HX024 (ip), vehicle: other): 155 % of control
- T/C (endpoint: median survival time, dose: 400.0 mg/kg/injection, schedule: Q03HX024 (sc), vehicle: other): 105 % of control
- T/C (endpoint: median survival time, dose: 800.0 mg/kg/injection, schedule: Q01DX009 (ip), vehicle: other): 155 % of control
- T/C (endpoint: median survival time, dose: 800.0 mg/kg/injection, schedule: Q01DX009 (sc), vehicle: other): 161 % of control
- T/C (endpoint: median survival time, dose: 1600.0 mg/kg/injection, schedule: Q01DX009 (ip), vehicle: other): 122 % of control
- T/C (endpoint: median survival time, dose: 1600.0 mg/kg/injection, schedule: Q01DX009 (sc), vehicle: other): 155 % of control
- T/C (endpoint: median survival time, dose: 3200.0 mg/kg/injection, schedule: Q01DX009 (sc), vehicle: other): 111 % of control
- T/C (endpoint: median survival time, dose: 3200.0 mg/kg/injection, schedule: Q04DX003 (sc), vehicle: other): 150 % of control

SMILES: Nc1nc(=S)c2ncn(C3OC(COC(=O)c4ccc(Cl)cc4)C(OC(=O)c4ccc(Cl)cc4)C3OC(=O)c3ccc(Cl)cc3)c2[nH]1 (stereo unspecified)
- T/C (endpoint: median survival time, dose: 12.5 mg/kg/injection, schedule: Q01DX Z (sc), vehicle: carboxymethylcellulose (CMC)): 100 % of control
- T/C (endpoint: median survival time, dose: 25.0 mg/kg/injection, schedule: Q01DX Z (sc), vehicle: carboxymethylcellulose (CMC)): 106 % of control
- T/C (endpoint: median survival time, dose: 50.0 mg/kg/injection, schedule: Q01DX Z (sc), vehicle: carboxymethylcellulose (CMC)): 100 % of control
- T/C (endpoint: median survival time, dose: 65.0 mg/kg/injection, schedule: Q01DX Z (sc), vehicle: carboxymethylcellulose (CMC)): 100 % of control
- T/C (endpoint: median survival time, dose: 100.0 mg/kg/injection, schedule: Q01DX Z (sc), vehicle: carboxymethylcellulose (CMC)): 112 % of control
- T/C (endpoint: median survival time, dose: 108.0 mg/kg/injection, schedule: Q01DX Z (sc), vehicle: carboxymethylcellulose (CMC)): 122 % of control
- T/C (endpoint: median survival time, dose: 200.0 mg/kg/injection, schedule: Q01DX Z (sc), vehicle: carboxymethylcellulose (CMC)): 150 % of control

SMILES: CS(C)=O
- T/C (endpoint: median survival time, dose: 1.5 grams/kg/injection, schedule: Q01DX009 (ip), vehicle: saline): 103 % of control
- T/C (endpoint: median survival time, dose: 3.0 grams/kg/injection, schedule: Q01DX009 (ip), vehicle: saline): 97 % of control
- T/C (endpoint: median survival time, dose: 6.0 grams/kg/injection, schedule: Q01DX009 (ip), vehicle: saline): 103 % of control

SMILES: O=c1nc2[nH]c(=O)[nH]c(=O)c2n[nH]1
- T/C (endpoint: median survival time, dose: 10.0 mg/kg/injection, schedule: Q01DX Z (sc), vehicle: saline): 100 % of control
- T/C (endpoint: median survival time, dose: 28.0 mg/kg/injection, schedule: Q01DX Z (sc), vehicle: saline): 100 % of control
- T/C (endpoint: median survival time, dose: 47.0 mg/kg/injection, schedule: Q01DX Z (sc), vehicle: saline): 100 % of control
- T/C (endpoint: median survival time, dose: 78.0 mg/kg/injection, schedule: Q01DX Z (sc), vehicle: saline): 100 % of control

SMILES: O=C(O)CCCc1ccc(N(CCCl)CCCl)cc1
- T/C (endpoint: median survival time, dose: 8.4 mg/kg/injection, schedule: Q01DX Z (sc), vehicle: methylcellulose (MC)): 100 % of control
- T/C (endpoint: median survival time, dose: 14.0 mg/kg/injection, schedule: Q01DX Z (sc), vehicle: methylcellulose (MC)): 100 % of control
- T/C (endpoint: median survival time, dose: 23.0 mg/kg/injection, schedule: Q01DX Z (sc), vehicle: methylcellulose (MC)): 100 % of control
- T/C (endpoint: median survival time, dose: 39.0 mg/kg/injection, schedule: Q01DX Z (sc), vehicle: methylcellulose (MC)): 110 % of control

SMILES: CCCCCCCSc1ncnc2nc[nH]c12
- T/C [1]: 111 % of control
- T/C [2]: 111 % of control
- T/C [3]: 100 % of control
- T/C (endpoint: median survival time, dose: 500.0 mg/kg/injection, schedule: Q01DX Z (sc), vehicle: methylcellulose (MC)): 100 % of control
- T/C (endpoint: median survival time, dose: 833.0 mg/kg/injection, schedule: Q01DX Z (sc), vehicle: methylcellulose (MC)): 100 % of control
- T/C (endpoint: median survival time, dose: 1388.0 mg/kg/injection, schedule: Q01DX Z (sc), vehicle: methylcellulose (MC)): 100 % of control
